Assay [1] deals with T1, Proto-oncogene tyrosine-protein kinase Src (Gallus gallus, UniProt P00523). Kind of assay: Inhibition of p60 c-Src tyrosine kinase at 830 ng/mL.
For assay [2], the target named is T1, Proto-oncogene tyrosine-protein kinase Src. Kind of assay: Inhibition of p60 c-Src tyrosine kinase mediated phosphorylation of Fak in IC8.1 fibroblasts. In kind it is functional.
Assay [3] has as its target Epidermal growth factor receptor (Homo sapiens, UniProt P00533). The assay is described as follows: Inhibition of Epidermal growth factor receptor (EGF-R) tyrosine kinase activity.
For assay [4], the target named is T1, Proto-oncogene tyrosine-protein kinase Src. Kind of assay: Inhibition of p60 c-Src tyrosine kinase activity.
For assay [5], the target named is Tyrosine-protein kinase ABL (Homo sapiens, UniProt P00519+P42684).
Description: Inhibition of v-Abl tyrosine kinase activity

Sequence of Epidermal growth factor receptor (P00533 whole entry): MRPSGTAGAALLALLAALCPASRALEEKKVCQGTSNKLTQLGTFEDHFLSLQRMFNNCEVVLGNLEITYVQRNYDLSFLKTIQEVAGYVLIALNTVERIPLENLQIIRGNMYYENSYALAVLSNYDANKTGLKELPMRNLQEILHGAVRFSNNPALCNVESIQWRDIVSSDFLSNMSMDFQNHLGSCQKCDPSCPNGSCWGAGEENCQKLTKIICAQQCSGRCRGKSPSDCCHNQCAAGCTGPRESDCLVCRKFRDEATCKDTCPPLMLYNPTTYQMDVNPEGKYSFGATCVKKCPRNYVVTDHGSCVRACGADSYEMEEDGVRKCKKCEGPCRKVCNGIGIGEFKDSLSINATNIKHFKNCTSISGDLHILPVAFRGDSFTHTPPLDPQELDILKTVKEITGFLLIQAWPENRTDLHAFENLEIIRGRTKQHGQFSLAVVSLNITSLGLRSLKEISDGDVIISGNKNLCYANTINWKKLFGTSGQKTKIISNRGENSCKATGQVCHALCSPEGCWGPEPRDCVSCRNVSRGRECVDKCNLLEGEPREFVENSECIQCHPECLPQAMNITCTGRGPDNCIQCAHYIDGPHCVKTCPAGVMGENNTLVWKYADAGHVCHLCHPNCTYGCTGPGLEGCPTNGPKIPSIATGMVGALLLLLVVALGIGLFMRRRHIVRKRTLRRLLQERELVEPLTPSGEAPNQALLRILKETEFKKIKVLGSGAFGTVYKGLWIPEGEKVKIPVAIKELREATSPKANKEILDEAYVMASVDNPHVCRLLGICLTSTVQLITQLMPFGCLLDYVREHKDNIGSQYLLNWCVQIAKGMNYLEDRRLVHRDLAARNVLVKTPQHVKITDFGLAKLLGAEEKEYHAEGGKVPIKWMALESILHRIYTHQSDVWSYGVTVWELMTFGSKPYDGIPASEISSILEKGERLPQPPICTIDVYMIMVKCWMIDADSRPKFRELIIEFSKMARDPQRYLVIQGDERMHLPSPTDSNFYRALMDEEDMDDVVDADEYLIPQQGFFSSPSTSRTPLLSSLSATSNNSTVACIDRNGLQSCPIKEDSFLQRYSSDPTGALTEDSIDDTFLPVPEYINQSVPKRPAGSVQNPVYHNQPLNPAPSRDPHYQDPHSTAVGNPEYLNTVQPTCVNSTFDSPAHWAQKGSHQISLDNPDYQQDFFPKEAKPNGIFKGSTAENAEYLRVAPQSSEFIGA

Compound `Nc1ncnc2c1c(-c1ccccc1)cn2[C@H](CO)c1ccccc1` came in with an IC50 in assay [1] of 4900 nM.
As to `Nc1ncnc2c1c(-c1cccc(O)c1)cn2C1CCCC1`, the IC50 in assay [2] worked out at 200 nM; in assay [3] it was 80 nM; in assay [4], 1 nM.
As for `COc1cccc(-c2cn(C3CCC3)c3ncnc(N)c23)c1`, the IC50 was determined as 600 nM in assay [2], 50 nM in assay [5], 450 nM in assay [3] and 40 nM in assay [4].
Taken in the same sequence, the figures for `COc1ccc(-c2cn(C3CCCC3)c3ncnc(N)c23)cc1` were 1200 nM, 260 nM, 570 nM and 80 nM.
Take `COc1ccc(CC(CO)n2cc(-c3cccc(OC)c3)c3c(N)ncnc32)cc1` (stereo unspecified): the IC50 worked out at 9700 nM in assay [3] and 1000 nM in assay [4].
As for `Nc1ncnc2c1c(-c1ccccc1)cn2C1CCC1`, the IC50 in assay [2] was 1000 nM; in assay [5], 90 nM; in assay [3] it was 730 nM; in assay [4], 110 nM.
As for `Nc1ncnc2c1c(-c1ccccc1)cn2C1CCC(O)C1` (stereo unspecified), the IC50 is 200 nM in assay [2], 40 nM in assay [5], 790 nM in assay [3] and 50 nM in assay [4].
For the compound `COc1cccc(-c2cn(C3CC(C(=O)NCCO)C3)c3ncnc(N)c23)c1` (stereo unspecified), the IC50 in assay [2] is 4000 nM; in assay [5], 230 nM; in assay [3] it was 330 nM; in assay [4], 20 nM.
Take `COc1ccc(-c2cn(C3CCC3)c3ncnc(N)c23)cc1`: the results for the IC50 in assay [2] and in assay [4] were 3000 nM and 200 nM, respectively.
Turning to `COc1ccc(CC(CO)n2cc(-c3cccc(O)c3)c3c(N)ncnc32)cc1` (stereo unspecified), the IC50 is 400 nM in assay [2], 340 nM in assay [5], 3400 nM in assay [3] and 42 nM in assay [4].
For `COc1cccc(-c2cn(C3CCCC3)c3ncnc(N)c23)c1` the same measures were 170 nM, 170 nM, 460 nM and 2 nM.
As for `Nc1ncnc2c1c(-c1ccccc1)cn2C(CO)Cc1ccccc1` (stereo unspecified), the IC50 in assay [5] was determined as 10500 nM; in assay [3] it was 440 nM; in assay [4], 600 nM.
For the compound `Nc1ncnc2c1c(-c1ccccc1)cn2C(CO)CCc1ccccc1` (stereo unspecified), in assay [4], the IC50 came to 4000 nM.
For the compound `COc1cccc(-c2cn(C3CC(CNCCO)C3)c3ncnc(N)c23)c1` (stereo unspecified), the IC50 in assay [2] amounted to 300 nM; in assay [5], 420 nM; in assay [3], 490 nM; in assay [4] it was 20 nM.
For `COc1ccc(CC(CO)n2cc(-c3ccccc3)c3c(N)ncnc32)cc1` (stereo unspecified) the same measures were > 5000 nM, > 10000 nM, 14400 nM and > 1000 nM.
Consider `Nc1ncnc2c1c(-c1ccccc1)cn2[C@@H](CO)c1ccccc1`, for which the IC50 in assay [2] is > 5000 nM; in assay [4], 480 nM.
On to `Nc1ncnc2c1c(-c1ccccc1)cn2C(CO)Cc1ccc(O)cc1` (stereo unspecified), for which the IC50 in assay [5] was found to be 2200 nM; in assay [3] it was 13200 nM; in assay [4], 1900 nM.
For `Nc1ncnc2c1c(-c1ccc(O)cc1)cn2C1CCC1`, the IC50 in assay [2] stood at 1500 nM; in assay [5], 85 nM; in assay [3] it was 600 nM; in assay [4], 10 nM.
For `Nc1ncnc2c1c(-c1cccc(O)c1)cn2C1CCC1`, the IC50 in assay [2] came out at 100 nM; in assay [5], 5 nM; in assay [3] it was 300 nM; in assay [4], 4 nM.
Regarding `Nc1ncnc2c1c(-c1ccc(O)cc1)cn2C1CCCC1`, the IC50 in assay [2] was determined as 300 nM; in assay [5], 110 nM; in assay [3] it was 250 nM; in assay [4], 20 nM.
Take `COc1cccc(-c2cn(C3CC(CO)C3)c3ncnc(N)c23)c1` (stereo unspecified): the IC50 in assay [2] is 2000 nM; in assay [5], 40 nM; in assay [4] it was 30 nM.
On to `Nc1ncnc2c1c(-c1ccccc1)cn2C1CCCC1`, for which the IC50 in assay [2] is 1800 nM; in assay [5], 140 nM; in assay [3], 500 nM; in assay [4] it was 140 nM.
Turning to `Nc1ncnc2c1c(-c1ccccc1)cn2C1CC(O)C1` (stereo unspecified), the half-inhibitory concentration (IC50) in assay [2] is 4000 nM; in assay [5], 390 nM; in assay [3], 2820 nM; in assay [4], 20 nM.

In general, IC50 refers to the concentration at which inhibition is half-maximal.

These data come from ChEMBL document CHEMBL1134829, “7-Alkyl- and 7-cycloalkyl-5-aryl-pyrrolo[2,3-d]pyrimidines--potent inhibitors of the tyrosine kinase c-Src” (Bioorg Med Chem Lett, 2001).
